Literature values as cited in patent US20230033410A1, “COMPLEX FORMULATION COMPRISING SITAGLIPTIN AND DAPAGLIFLOZIN, AND PREPARATION METHOD THEREFOR” (HANMI PHARM. CO.,LTD., priority 2019, published 2023).
Like-named read-outs stand apart in the source and are kept apart here.

Settings: plasma

Tmax (range in brackets) [h]	Tmax (stated for both drugs)	Structure (SMILES)
1 to 2	about 1 hour	CCOc1ccc(Cc2cc([C@@H]3O[C@H](CO)[C@@H](O)[C@H](O)[C@H]3O)ccc2Cl)cc1 [dapagliflozin, (2S,3R,4R,5S,6R)-2-[4-chloro-3-(4-ethoxybenzyl)phenyl]-6-(hydroxymethyl)tetrahydro-2H-pyran-3,4,5-triol]
1 to 4	about 1 hour	N[C@@H](CC(=O)N1CCn2c(nnc2C(F)(F)F)C1)Cc1cc(F)c(F)cc1F [sitagliptin, (R)-3-amino-1-(3-(trifluoromethyl)-5,6-dihydro-[1,2,4]triazolo[4,3-a]pyrazin-7(8H)-yl)-4-(2,4,5-trifluorophenyl)butan-1-one]
